# Reference: patent publication US8008506B2, “Indazole compounds” (priority 2008, dated 2011)
# pEC50: −log10 of the molar value. Where two headings read alike, the source gives them in different places.
# Columns and labels:
# Format in all cases: cell-based
# [1] = molecular target: T1, human β2 adrenergic receptor (Homo sapiens, UniProt P07550); experiment: Test Example 3-B: human β2 adrenergic receptor agonist activity (method of Test Example 1-B); details: for β2 receptor EC50: Table 2, Test Example 3-B; for Emax: read-out: β2 receptor I.A.
# T1 construct: expressed in transfected cells; host or cells: CHO (Chinese Hamster Ovary) cells, pcDNA3
# Method: [Worded in the source for another target; this target is reported under the same test.] (§1) The measurement of human β3 adrenergic receptor agonist activity is carried out using CHO (Chinese Hamster Ovary) cells transfected with pcDNA3 (manufactured by Invitrogen, Inc.) to which human β3 gene has been inserted. […] This human β3 cDNA fragment is used as a probe, and the full length human β3 gene is obtained from a human genomic library (manufactured by Clontech Laboratories, Inc.). The above cells are cultured in Ham's F-12 medium containing 10% fetal bovine serum and 400 μg/ml geneticin (manufactured by Invitrogen, Inc.). These cells are seeded on a 96-well plate to a concentration of 2×10^4 cells/well, and after being cultured for about 20 hours, the cells are left to stand in 80 μL of serum-free Ham's F-12 medium for 15 minutes. A test compound is initially dissolved in DMSO, and then is diluted stepwise with Ham's F-12 containing 100 mmol/L HEPES and 1 mmol/L isobutylmethylxanthine. 20 μL of the dilution is added to the cells. After the cells are cultured for 30 minutes, the medium is removed. 0.3. ml of the Assay/lysis Buffer included in cAMP-Screen kit (manufactured by Applied Biosystems, Inc.) is added to the cells, and the cells are incubated at 37° C. for 30 minutes. The resulting cell lysate is subjected to quantification of cAMP with the cAMP-Screen kit. […] Measurement of Human β2 Adrenergic Receptor Agonist Activity
# [2] = molecular target: T2, human β3 adrenergic receptor (Homo sapiens, UniProt P13945); experiment: Test Example 1-B: human β3 adrenergic receptor agonist activity (cAMP-Screen kit, transfected CHO cells, 96-well); details: for Emax: CHO, read-out: β3 receptor I.A.; for pEC50: Table 2, Test Example 1-B
# T2 construct: the full length human β3 gene is obtained from a human genomic library; expressed in transfected cells; host or cells: CHO (Chinese Hamster Ovary) cells, pcDNA3, geneticin selection
# Method: Measurement of Human β3 Adrenergic Receptor Agonist Activity
# The measurement of human β3 adrenergic receptor agonist activity is carried out using CHO (Chinese Hamster Ovary) cells transfected with pcDNA3 (manufactured by Invitrogen, Inc.) to which human β3 gene has been inserted. […] This human β3 cDNA fragment is used as a probe, and the full length human β3 gene is obtained from a human genomic library (manufactured by Clontech Laboratories, Inc.). The above cells are cultured in Ham's F-12 medium containing 10% fetal bovine serum and 400 μg/ml geneticin (manufactured by Invitrogen, Inc.). These cells are seeded on a 96-well plate to a concentration of 2×10^4 cells/well, and after being cultured for about 20 hours, the cells are left to stand in 80 μL of serum-free Ham's F-12 medium for 15 minutes. A test compound is initially dissolved in DMSO, and then is diluted stepwise with Ham's F-12 containing 100 mmol/L HEPES and 1 mmol/L isobutylmethylxanthine. 20 μL of the dilution is added to the cells. After the cells are cultured for 30 minutes, the medium is removed. 0.3. ml of the Assay/lysis Buffer included in cAMP-Screen kit (manufactured by Applied Biosystems, Inc.) is added to the cells, and the cells are incubated at 37° C. for 30 minutes. The resulting cell lysate is subjected to quantification of cAMP with the cAMP-Screen kit.
# [3] = molecular target: T3, human β1 adrenergic receptor (Homo sapiens, UniProt P08588); experiment: Test Example 2-B: human β1 adrenergic receptor agonist activity (method of Test Example 1-B); details: for β1 receptor EC50: Table 2, Test Example 2-B; for Emax: read-out: β1 receptor I.A.
# T3 construct: expressed in transfected cells; host or cells: CHO (Chinese Hamster Ovary) cells, pcDNA3
# Method: as §1, with “β1” for “β2”
# [4] = molecular target: T4, human α1A adrenergic receptor (Homo sapiens, UniProt P35348); experiment: Test Example 4: human α1A adrenergic receptor agonist activity (Ca flux, Fura-2, transfected HEK293 cells); details: for Emax: HEK293, read-out: α1A receptor I.A.
# T4 construct: expressed in transfected cells; host or cells: HEK293 cells, pcDNA3.1(−), hygromycin B selection
# T4 sequence (P35348 1-466): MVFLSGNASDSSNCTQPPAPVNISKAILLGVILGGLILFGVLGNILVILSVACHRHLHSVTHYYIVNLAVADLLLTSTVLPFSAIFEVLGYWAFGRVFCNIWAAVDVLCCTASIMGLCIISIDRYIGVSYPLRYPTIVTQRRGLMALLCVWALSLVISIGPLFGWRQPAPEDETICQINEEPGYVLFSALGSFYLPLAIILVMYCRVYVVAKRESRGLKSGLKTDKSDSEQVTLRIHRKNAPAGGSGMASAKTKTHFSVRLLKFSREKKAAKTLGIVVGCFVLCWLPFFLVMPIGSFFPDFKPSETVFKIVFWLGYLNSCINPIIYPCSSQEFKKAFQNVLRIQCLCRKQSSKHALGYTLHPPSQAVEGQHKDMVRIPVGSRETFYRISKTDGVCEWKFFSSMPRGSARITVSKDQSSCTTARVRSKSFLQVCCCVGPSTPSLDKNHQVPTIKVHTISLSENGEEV
# Method: Measurement of Human α1A Adrenergic Receptor Agonist Activity
# The measurement of human α1A adrenergic receptor agonist activity is carried out using HEK293 cells transfected with pcDNA3.1(−) (manufactured by Invitrogen, Inc.) to which human α1A gene has been inserted. These cells are cultured in DMEM medium containing 10% fetal bovine serum, 400 μg/ml hygromycin B (manufactured by Gibco BRL), 100 U/ml penicillin and 100 μg/ml streptomycin. […] The cells are loaded in a CO2 incubator for 30 minutes, and then are washed twice with the Assay Buffer to remove excess Fura-2AM. The cells are centrifuged, and then are prepared into a solution at 5×10^6 cells/ml with the Assay Buffer. Subsequently, the cells are dispensed on a 96-well plate (manufactured by Corning, Inc.) at a volume of 80 μl/well, and the plate is used as a cell plate. […] Subsequently, measurement of fluorescence intensity (excitation wavelength 340 nm and 380 nm, measurement wavelength 500 nm) is initiated at an interval of 2 seconds. After making measurements for about 30 seconds, 20 μl of the test sample from the sample plate is added to the cell plate, and measurements are further continued for 270 seconds. The Ca flux resulting from the test compound is calculated utilizing the difference between the maximum value of fluorescence intensity ratio at the wavelengths 340 nm and 380 nm after the addition of the test compound, and the fluorescence intensity ratio before the addition of the test compound, as the peak height.
# [5] = Table 2, Test Example 4, read-out: α1A receptor EC50
# T3 sequence (P08588 whole entry): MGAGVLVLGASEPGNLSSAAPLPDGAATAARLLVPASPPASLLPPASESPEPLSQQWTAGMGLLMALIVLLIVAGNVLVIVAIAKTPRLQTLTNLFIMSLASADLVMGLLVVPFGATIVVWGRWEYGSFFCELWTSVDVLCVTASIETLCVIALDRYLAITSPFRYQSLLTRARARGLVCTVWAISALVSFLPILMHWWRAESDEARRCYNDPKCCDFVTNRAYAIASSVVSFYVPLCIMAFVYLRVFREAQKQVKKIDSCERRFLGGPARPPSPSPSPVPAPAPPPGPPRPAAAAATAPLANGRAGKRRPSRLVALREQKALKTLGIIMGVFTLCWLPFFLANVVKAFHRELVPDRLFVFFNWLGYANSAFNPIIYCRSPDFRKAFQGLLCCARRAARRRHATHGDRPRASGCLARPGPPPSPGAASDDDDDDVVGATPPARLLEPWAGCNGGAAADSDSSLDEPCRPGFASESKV
# T2 sequence (P13945 whole entry): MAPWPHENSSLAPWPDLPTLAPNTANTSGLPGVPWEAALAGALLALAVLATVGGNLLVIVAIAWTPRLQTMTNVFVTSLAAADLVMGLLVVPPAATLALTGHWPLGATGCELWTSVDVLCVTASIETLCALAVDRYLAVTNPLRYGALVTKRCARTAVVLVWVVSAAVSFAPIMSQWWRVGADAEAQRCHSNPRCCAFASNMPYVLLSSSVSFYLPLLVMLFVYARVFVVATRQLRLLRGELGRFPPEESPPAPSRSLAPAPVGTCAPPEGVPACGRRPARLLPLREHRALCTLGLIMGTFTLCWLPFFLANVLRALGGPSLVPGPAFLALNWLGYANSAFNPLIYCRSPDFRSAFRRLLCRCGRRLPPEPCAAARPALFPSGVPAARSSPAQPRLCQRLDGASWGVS
# T1 sequence (P07550 whole entry): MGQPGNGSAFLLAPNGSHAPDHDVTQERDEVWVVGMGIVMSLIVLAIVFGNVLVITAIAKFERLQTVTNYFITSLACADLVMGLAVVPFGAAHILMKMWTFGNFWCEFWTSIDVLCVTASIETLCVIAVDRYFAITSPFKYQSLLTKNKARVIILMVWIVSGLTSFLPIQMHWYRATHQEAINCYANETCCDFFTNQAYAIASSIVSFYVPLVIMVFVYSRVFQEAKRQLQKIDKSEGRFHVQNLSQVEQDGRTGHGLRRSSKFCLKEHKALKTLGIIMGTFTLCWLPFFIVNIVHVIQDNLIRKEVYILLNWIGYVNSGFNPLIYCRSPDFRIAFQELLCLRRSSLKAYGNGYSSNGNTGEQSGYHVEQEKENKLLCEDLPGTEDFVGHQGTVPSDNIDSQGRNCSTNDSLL
Structure (SMILES),β2 receptor EC50 [1],Emax [1],Emax [2],pEC50 [2],β1 receptor EC50 [3],Emax [3],Emax [4],"pEC50 [4, 5]",pEC50 [4],"α1A receptor I.A. ([4]; Table 2, maximum response to norepinephrine taken as 100%)"
"Cc1n[nH]c2cc(OCCNC[C@H](O)c3cccc(NS(=O)(=O)c4ccccc4)c3)ccc12 [Example 14, (R)-N-(3-(1-hydroxy-2-(2-(3-methylindazol-6-yloxy)ethylamino)ethyl)phenyl)benzenesulfonamide]",b),0%,90%,8.00,a),16%,0%,–,< 5.70,–
"CC(C)c1n[nH]c2cc(OCCNC[C@H](O)c3ccc(Cl)c(NS(C)(=O)=O)c3)ccc12 [Example 7, (R)-N-(2-chloro-5-(1-hydroxy-2-(2-(3-isopropylindazol-6-yloxy)ethylamino)ethyl)phenyl)methanesulfonamide]",a),8%,65%,7.89,a),22%,0%,< 5.70,–,–
"CCc1n[nH]c2cc(OCCNC[C@H](O)c3cccc(NS(=O)(=O)c4ccccc4)c3)ccc12 [Example 15, (R)-N-(3-(2-(2-(3-ethylindazol-6-yloxy)ethylamino)-1-hydroxyethyl)phenyl)benzenesulfonamide]",b),-3%,80%,7.89,a),1%,0%,< 5.70,–,–

# Continued, values first:
β2 receptor EC50 [1],Emax [1],Emax [2],pEC50 [2],β1 receptor EC50 [3],Emax [3],Emax [4],"pEC50 [4, 5]",pEC50 [4],"α1A receptor I.A. ([4]; Table 2, maximum response to norepinephrine taken as 100%)",Structure (SMILES)
b),-3%,80%,7.33,b),-2%,20%,< 5.70,–,–,"CCc1n[nH]c2cc(OCCNC[C@H](O)c3cccc(NS(=O)(=O)C(C)C)c3)ccc12 [Example 13, (R)-N-(3-(2-(2-(3-ethylindazol-6-yloxy)ethylamino)-1-hydroxyethyl)phenyl)propane-2-sulfonamide]"
a),5%,80%,7.96,a),3%,26%,6.31,–,–,"CCc1n[nH]c2cc(OCCNC[C@H](O)c3cccc(NS(=O)(=O)CC)c3)ccc12 [Example 20, (R)-N-(3-(2-(2-(3-ethylindazol-6-yloxy)ethylamino)-1-hydroxyethyl)phenyl)ethanesulfonamide]"
a),2%,84%,7.08,b),-1%,34%,–,5.88,–,"Cc1n[nH]c2cc(OCCNC[C@H](O)c3cccc(NS(=O)(=O)C(C)C)c3)ccc12 [Example 12, (R)-N-(3-(1-hydroxy-2-(2-(3-methylindazol-6-yloxy)ethylamino)ethyl)phenyl)propane-2-sulfonamide]"
a),3%,53%,7.39,a),8%,15%,5.89,–,–,"CS(=O)(=O)Nc1cc([C@@H](O)CNCCOc2ccc3c(C(F)(F)F)n[nH]c3c2)ccc1F [Example 10, (R)-N-(2-fluoro-5-(1-hydroxy-2-(2-(3-(trifluoromethyl)indazol-6-yloxy)ethylamino)ethyl)phenyl)methanesulfonamide]"
–,–,–,–,–,–,100%,–,–,100%,"NC[C@H](O)c1ccc(O)c(O)c1 [Norepinephrine, reference compound]"
